# Results from patent US20050113318A1, “Combination of dehydroepiandrosterone or dehydroepiandrosterone-sulfate with a beta-agonist bronchodilator for treatment of asthma or chronic obstructive pulmonary disease” (priority 2003, published 2005).
# “And” between values parts separate entries of the source, which are not always exact repeats. Identical values can stand only once.
# What was measured:
# [1] = Respirable dose studies, Andersen cascade impactor; assay type: physicochemical; conditions: 90 L/min
# Description: The respirable dose (respirable fraction) studies were performed using a standard sampler cascade impactor (Andersen), consisting of an inlet cone (an impactor pre-separator was substituted here), 9 stages, 8 collection plates, and a backup filter within 8 aluminum stages held together by 3 spring clamps and gasket O-ring seals, where each impactor stage contains multiple precision drilled orifices. When air is drawn through the sampler, multiple jets of air in each stage direct any airborne particles toward the surface of the collection plate for that stage. The size of the jets is constant for each stage, but is smaller in each succeeding stage. Whether a particle is impacted on any given stage depends upon its aerodynamic diameter. The range of particle sizes collected on each stage depends upon on the jet velocity of the stage, and the cut-off point of the previous stage. Any particle not collected on the first stage follows the air stream around the edge of the plate to the next stage, where it is either impacted or passed on to the succeeding stage, and so on, until the velocity of the jet is sufficient for impaction. To prevent particle bounce during the cascade impactor test, the individual impactor plates were coated with a hexane-grease (high vacuum) solution (100:1 ratio). As noted above, the particle size cut-off points on the impactor plates changed at different airflow rates. […] The set-up recommended by the United States Phamacopeia for testing dry powder inhalers consists of a mouthpiece adapter (silicone in this case) attached to a glass throat (modified 50 ml round-bottom flask) and a glass distal pharynx (induction port) leading top the pre-separator and Andersen sampler. The pre-separator sample includes washings from the mouthpiece adaptor, glass throat, distal glass pharynx and pre-separator. 5 ml acetonitrile:water (1:1 ratio) solvent was placed in the pre-separator before performing the cascade impactor experiment, that were performed in duplicate with 3 different dry powder inhaler devices and at 3 airflow rates, 30, 60 and 90 L/min. The drug collected on the cascade impactor plates were assayed by the HPLC, and a drug mass balance was performed for each Diskhaler and multi-dose cascade impactor experiment consisting of determining the amount of drug left in the blister, the amount of drug remaining in the device (Diskhaler only), the non-respirable amount of the dose retained on the silicone rubber mouth piece adaptor, glass throat, glass distal pharynx and pre-separator, all combined into one sample, and the respirable dose, i.e. Stage 2 through filter impactor plates for airflow rates of 30 and 60 L/min and Stages 1 through filter impactor plates for 90 L/min experiments.
# The cascade impactor experiments were conducted as described in Example 3. Four cascade impactor experiments were done, three with a IDL multi-dose device and one with a Diskhaler, all at 90 L/min. […] However, the % respirable dose was still low. This was likely the result of moisture absorption of the anhydrous form.
# [2] = Fine particle fraction, single-dose Acu-Breathe inhaler into Andersen impactor; assay type: physicochemical; conditions: 30 L/min, IDL data, FIG. 1; result set to zero
# Description: These blisters are actuated into the Andersen 8-stage cascade impactor at flow rates ranging from 30 to 75 L/min with a glass twin-impinger throat. Stages 1-5 of the Andersen impactor are rinsed together to obtain an estimate of the fine particle fraction. Pooling the drug collected from multiple stages into one assay make the method much more sensitive. […] Using a carrier with a larger particle size typically improves the aerosol properties of micronized drug substances.
# Approximately 25 mg of this powder is filled and sealed in foil blisters and aerosolized using the single-dose device at 60 L/min. The aerosol results for this preliminary powder blend are satisfactory for a respiratory drug delivery system. […] This diameter is smaller than the median diameter measured for micronized DHEA-S.dihydrate by laser diffraction. Irregularly shaped particles can behave aerodynamically as smaller particles since their longest dimension tends to align with the air flow field. Therefore, it is common to see a difference between the two methods. Diffraction measurements are a quality control test for the input material while cascade impaction is a quality control test for the finished product.
# [3] = Multi-dose, oven dried drug for 80 minutes
# [4] = Multi-dose, oven dried drug for 20 hours
structure (smiles),measurement,setting,value
C[C@]12CC[C@H](OS(=O)(=O)[O-])CC1=CC[C@@H]1[C@@H]2CC[C@]2(C)C(=O)CC[C@@H]12.[Na+] [Anhydrous DHEA-S],respirable dose of spray-dried compared to micronized anhydrous DHEA-S,[1],two-fold increase
same,Blister,[1]; [3],2.8%
same,Mass Balance,[1]; [3],100.0%
same,Preseparator,[1]; [3],78.7%
same,Respirable Dose,[1]; [3],4.6%
same,Device,"[1]; Multi-dose, oven dried drug for 80 minutes, by difference",13.9 *^a %
same,Blister,[1]; [4],5.0%
same,Mass Balance,[1]; [4],100.0%
same,Preseparator,[1]; [4],55.9%
same,Respirable Dose,[1]; [4],1.2%
same,Device,"[1]; Multi-dose, oven dried drug for 20 hours, by difference",37.9 *^a %
same,Blister,"[1]; jet-milled drug, Diskhaler",6.6% and 10.1%
same,Device,"[1]; jet-milled drug, Diskhaler",22.1% and 13.3%
same,Mass Balance,"[1]; jet-milled drug, Diskhaler",104.3% and 86.0%
same,Preseparator,"[1]; jet-milled drug, Diskhaler",72.7% and 60.2%
same,Respirable Dose,"[1]; jet-milled drug, Diskhaler",2.9% and 2.4%
same,Blister,"[1]; jet-milled drug, Multi-dose",3.8% and 3.9%
same,Mass Balance,"[1]; jet-milled drug, Multi-dose",100.0%
same,Preseparator,"[1]; jet-milled drug, Multi-dose",73.3% and 65.8%
same,Respirable Dose,"[1]; jet-milled drug, Multi-dose",3.6% and 3.8%
same,Device,"[1]; jet-milled drug, Multi-dose, retention obtained by difference",19.3 *^a % and 26.5 *^a %
same,Blisters,"[1]; spray-dried drug, Diskhaler",29.0%
same,Device,"[1]; spray-dried drug, Diskhaler",11.2%
same,Preseparator,"[1]; spray-dried drug, Diskhaler",56.8%
same,Respirable Dose,"[1]; spray-dried drug, Diskhaler",5.6%
same,fine particle fraction,[2],no detectable mass entered the impactor
